Results published in ChEMBL document CHEMBL4507290 (2021).

Key:
[1] = biological target: Myotonin-protein kinase (Homo sapiens) (UniProt Q09013); details: Compound concentration 1000.0 nM
[2] = biological target: Mitogen-activated protein kinase kinase kinase kinase 1 (Homo sapiens) (UniProt Q92918); details: Compound concentration 1000.0 nM
[3] = biological target: Serine/threonine-protein kinase 10 (Homo sapiens) (UniProt O94804); details: Compound concentration 1000.0 nM
[4] = biological target: Fibroblast growth factor receptor 2 (Homo sapiens) (UniProt P21802); details: Compound concentration 1000.0 nM
Chain of Fibroblast growth factor receptor 2 (Homo sapiens) (P21802 22-821 limits assumed): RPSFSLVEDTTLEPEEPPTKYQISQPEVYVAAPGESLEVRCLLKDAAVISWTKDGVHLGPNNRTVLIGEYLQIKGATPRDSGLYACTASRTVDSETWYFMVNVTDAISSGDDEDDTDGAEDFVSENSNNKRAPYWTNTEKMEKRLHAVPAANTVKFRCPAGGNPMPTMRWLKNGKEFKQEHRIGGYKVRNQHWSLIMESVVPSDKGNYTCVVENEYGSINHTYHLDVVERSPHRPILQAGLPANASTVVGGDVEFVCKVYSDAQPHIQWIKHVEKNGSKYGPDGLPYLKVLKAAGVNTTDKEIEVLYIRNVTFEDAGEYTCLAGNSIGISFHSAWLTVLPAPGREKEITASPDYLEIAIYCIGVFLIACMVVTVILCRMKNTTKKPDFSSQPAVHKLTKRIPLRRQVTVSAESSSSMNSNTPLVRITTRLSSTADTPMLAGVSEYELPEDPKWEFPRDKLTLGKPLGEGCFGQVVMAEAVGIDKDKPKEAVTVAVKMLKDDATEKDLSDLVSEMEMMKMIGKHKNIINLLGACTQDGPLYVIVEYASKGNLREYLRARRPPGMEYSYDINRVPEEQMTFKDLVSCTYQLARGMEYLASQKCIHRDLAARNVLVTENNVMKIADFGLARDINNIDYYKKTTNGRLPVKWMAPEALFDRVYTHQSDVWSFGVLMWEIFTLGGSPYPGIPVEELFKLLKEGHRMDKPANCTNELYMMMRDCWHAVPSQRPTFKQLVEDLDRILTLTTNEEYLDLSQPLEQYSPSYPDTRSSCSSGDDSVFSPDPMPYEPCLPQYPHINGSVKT

[5] = biological target: Serine/threonine-protein kinase pim-2 (Homo sapiens) (UniProt Q9P1W9); details: Compound concentration 1000.0 nM
[6] = biological target: Serine/threonine-protein kinase Sgk2 (Homo sapiens) (UniProt Q9HBY8); details: Compound concentration 1000.0 nM
[7] = biological target: Serine/threonine-protein kinase PAK 4 (Homo sapiens) (UniProt O96013); details: Compound concentration 1000.0 nM
Chain of Serine/threonine-protein kinase PAK 4 (Homo sapiens) (O96013 whole entry, looked up): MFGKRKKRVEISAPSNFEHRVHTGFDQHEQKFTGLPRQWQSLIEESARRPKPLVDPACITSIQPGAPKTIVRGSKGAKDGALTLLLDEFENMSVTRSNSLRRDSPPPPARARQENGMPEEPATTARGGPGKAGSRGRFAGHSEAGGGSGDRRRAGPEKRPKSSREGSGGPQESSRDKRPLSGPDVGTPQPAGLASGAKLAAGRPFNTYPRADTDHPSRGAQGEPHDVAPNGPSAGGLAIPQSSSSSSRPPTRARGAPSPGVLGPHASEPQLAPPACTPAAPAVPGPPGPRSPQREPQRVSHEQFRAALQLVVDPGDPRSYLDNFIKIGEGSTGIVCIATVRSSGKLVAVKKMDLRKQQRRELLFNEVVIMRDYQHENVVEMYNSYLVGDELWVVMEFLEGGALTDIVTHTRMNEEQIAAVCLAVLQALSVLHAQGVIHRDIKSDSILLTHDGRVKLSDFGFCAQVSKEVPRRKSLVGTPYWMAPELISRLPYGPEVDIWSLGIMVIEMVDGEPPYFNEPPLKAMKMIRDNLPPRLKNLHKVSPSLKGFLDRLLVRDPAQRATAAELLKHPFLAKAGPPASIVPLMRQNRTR

[8] = biological target: Dual specificity mitogen-activated protein kinase kinase 1 (Homo sapiens) (UniProt Q02750); details: Compound concentration 1000.0 nM
[9] = biological target: 5-hydroxytryptamine receptor 2C (Homo sapiens) (UniProt P28335); details: Compound concentration 10.0 uM
[10] = biological target: Tyrosine-protein kinase receptor UFO (Homo sapiens) (UniProt P30530); details: Compound concentration 1000.0 nM
[11] = biological target: Tyrosine-protein kinase CSK (Homo sapiens) (UniProt P41240); details: Compound concentration 1000.0 nM
[12] = biological target: Serine/threonine-protein kinase pim-1 (Homo sapiens) (UniProt P11309); details: Compound concentration 1000.0 nM
[13] = biological target: Serine/threonine-protein kinase PAK 2 (Homo sapiens) (UniProt Q13177); details: Compound concentration 1000.0 nM
[14] = biological target: Ephrin type-A receptor 6 (Homo sapiens) (UniProt Q9UF33); details: Compound concentration 1000.0 nM
[15] = biological target: Mitogen-activated protein kinase kinase kinase kinase 5 (Homo sapiens) (UniProt Q9Y4K4); details: Compound concentration 1000.0 nM
[16] = biological target: Mitogen-activated protein kinase kinase kinase kinase 2 (Homo sapiens) (UniProt Q12851); details: Compound concentration 1000.0 nM
Chain of Mitogen-activated protein kinase kinase kinase kinase 2 (Homo sapiens) (Q12851 whole entry, canonical isoform): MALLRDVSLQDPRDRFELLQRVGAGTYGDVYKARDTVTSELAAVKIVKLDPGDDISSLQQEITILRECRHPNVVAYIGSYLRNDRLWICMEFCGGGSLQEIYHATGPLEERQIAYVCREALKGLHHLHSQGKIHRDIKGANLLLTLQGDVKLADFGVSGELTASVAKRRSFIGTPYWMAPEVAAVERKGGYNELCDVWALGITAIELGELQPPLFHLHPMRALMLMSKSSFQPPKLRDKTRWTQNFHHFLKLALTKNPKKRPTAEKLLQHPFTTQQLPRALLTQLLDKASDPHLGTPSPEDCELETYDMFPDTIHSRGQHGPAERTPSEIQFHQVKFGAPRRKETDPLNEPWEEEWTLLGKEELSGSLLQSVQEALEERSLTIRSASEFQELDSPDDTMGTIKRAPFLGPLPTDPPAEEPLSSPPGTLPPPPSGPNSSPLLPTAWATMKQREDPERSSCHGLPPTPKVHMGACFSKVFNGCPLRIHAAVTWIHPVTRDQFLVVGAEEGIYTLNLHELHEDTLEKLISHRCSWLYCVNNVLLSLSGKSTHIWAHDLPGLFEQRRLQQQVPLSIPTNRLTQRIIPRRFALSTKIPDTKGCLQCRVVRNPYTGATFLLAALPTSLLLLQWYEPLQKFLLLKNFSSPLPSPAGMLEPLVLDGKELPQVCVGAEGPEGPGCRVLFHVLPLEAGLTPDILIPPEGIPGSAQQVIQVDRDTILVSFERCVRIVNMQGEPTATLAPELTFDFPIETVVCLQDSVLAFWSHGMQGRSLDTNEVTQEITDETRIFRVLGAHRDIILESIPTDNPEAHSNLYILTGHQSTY

[17] = biological target: Casein kinase I isoform delta (Homo sapiens) (UniProt P48730); details: Compound concentration 1000.0 nM
[18] = biological target: Phosphatidylinositol 5-phosphate 4-kinase type-2 gamma (Homo sapiens) (UniProt Q8TBX8); details: Compound concentration 1000.0 nM
[19] = biological target: Mitogen-activated protein kinase kinase kinase 14 (Homo sapiens) (UniProt Q99558); details: Compound concentration 1000.0 nM
[20] = biological target: Rhodopsin kinase GRK1 (Homo sapiens) (UniProt Q15835); details: Compound concentration 1000.0 nM
[21] = biological target: Serine/threonine-protein kinase 38-like (Homo sapiens) (UniProt Q9Y2H1); details: Compound concentration 1000.0 nM
[22] = biological target: High affinity nerve growth factor receptor (Homo sapiens) (UniProt P04629); details: Compound concentration 1000.0 nM
[23] = tested on: Epidermal growth factor receptor (Homo sapiens), P00533 [UNDEFINED MUTATION]; details: Compound concentration 1000.0 nM
[24] = biological target: Tyrosine-protein kinase Lyn (Homo sapiens) (UniProt P07948); details: Compound concentration 1000.0 nM
[25] = biological target: Homeodomain-interacting protein kinase 4 (Homo sapiens) (UniProt Q8NE63); details: Compound concentration 1000.0 nM
[26] = biological target: Serine/threonine-protein kinase RIO3 (Homo sapiens) (UniProt O14730); details: Compound concentration 1000.0 nM
Chain of Serine/threonine-protein kinase RIO3 (Homo sapiens) (O14730 whole entry): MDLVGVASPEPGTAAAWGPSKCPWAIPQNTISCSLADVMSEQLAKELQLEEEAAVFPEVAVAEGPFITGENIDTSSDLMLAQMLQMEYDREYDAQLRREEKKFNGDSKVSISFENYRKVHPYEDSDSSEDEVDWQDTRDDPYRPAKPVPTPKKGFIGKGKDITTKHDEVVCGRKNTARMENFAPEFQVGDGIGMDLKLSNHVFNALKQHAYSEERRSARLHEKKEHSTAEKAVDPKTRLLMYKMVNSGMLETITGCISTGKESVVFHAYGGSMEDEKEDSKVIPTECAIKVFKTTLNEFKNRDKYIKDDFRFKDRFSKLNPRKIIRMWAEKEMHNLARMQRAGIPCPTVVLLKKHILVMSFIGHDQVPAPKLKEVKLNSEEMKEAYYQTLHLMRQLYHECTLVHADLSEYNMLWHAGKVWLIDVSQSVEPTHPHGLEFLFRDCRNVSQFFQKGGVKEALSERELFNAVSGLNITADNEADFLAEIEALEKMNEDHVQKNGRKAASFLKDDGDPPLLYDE

[27] = biological target: Activin receptor type-2A (Homo sapiens) (UniProt P27037); details: Compound concentration 1000.0 nM
[28] = biological target: Homeodomain-interacting protein kinase 3 (Homo sapiens) (UniProt Q9H422); details: Compound concentration 1000.0 nM
[29] = biological target: Serine/threonine-protein kinase VRK2 (Homo sapiens) (UniProt Q86Y07); details: Compound concentration 1000.0 nM
[30] = biological target: Casein kinase I isoform alpha-like (Homo sapiens) (UniProt Q8N752); details: Compound concentration 1000.0 nM
Chain of Casein kinase I isoform alpha-like (Homo sapiens) (Q8N752 whole entry, canonical isoform): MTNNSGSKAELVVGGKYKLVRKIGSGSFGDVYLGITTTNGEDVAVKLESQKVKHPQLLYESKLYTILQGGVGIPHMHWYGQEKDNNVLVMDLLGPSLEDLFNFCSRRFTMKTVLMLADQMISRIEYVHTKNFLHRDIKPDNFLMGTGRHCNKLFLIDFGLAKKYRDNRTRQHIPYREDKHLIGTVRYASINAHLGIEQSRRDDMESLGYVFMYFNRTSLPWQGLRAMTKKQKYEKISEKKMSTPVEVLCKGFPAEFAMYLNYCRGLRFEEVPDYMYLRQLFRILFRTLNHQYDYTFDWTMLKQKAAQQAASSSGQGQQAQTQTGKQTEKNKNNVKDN

[31] = biological target: Casein kinase I isoform alpha (Homo sapiens) (UniProt P48729); details: Compound concentration 1000.0 nM
[32] = tested on: Receptor-type tyrosine-protein kinase FLT3 (Homo sapiens), P36888 [D835Y]; details: Compound concentration 1000.0 nM
[33] = biological target: Tyrosine-protein kinase ITK/TSK (Homo sapiens) (UniProt Q08881); details: Compound concentration 1000.0 nM
[34] = biological target: Ephrin type-B receptor 4 (Homo sapiens) (UniProt P54760); details: Compound concentration 1000.0 nM
[35] = biological target: 5-hydroxytryptamine receptor 1D (Homo sapiens) (UniProt P28221); details: Compound concentration 10.0 uM
[36] = biological target: Serine/threonine-protein kinase LATS2 (Homo sapiens) (UniProt Q9NRM7); details: Compound concentration 1000.0 nM
[37] = biological target: Casein kinase II subunit alpha' (Homo sapiens) (UniProt P19784); details: Compound concentration 1000.0 nM
[38] = biological target: Protein kinase C eta type (Homo sapiens) (UniProt P24723); details: Compound concentration 1000.0 nM
[39] = biological target: Serine/threonine-protein kinase WNK4 (Homo sapiens) (UniProt Q96J92); details: Compound concentration 1000.0 nM
[40] = biological target: Ephrin type-A receptor 3 (Homo sapiens) (UniProt P29320); details: Compound concentration 1000.0 nM
[41] = biological target: Serine/threonine-protein kinase PknB (Mycobacterium tuberculosis) (UniProt P9WI81); details: Compound concentration 1000.0 nM
[42] = biological target: Serine/threonine-protein kinase D1 (Homo sapiens) (UniProt Q15139); details: Compound concentration 1000.0 nM
[43] = biological target: Serine/threonine-protein kinase SIK1 (Homo sapiens) (UniProt P57059); details: Compound concentration 1000.0 nM
Chain of Serine/threonine-protein kinase SIK1 (Homo sapiens) (P57059 whole entry): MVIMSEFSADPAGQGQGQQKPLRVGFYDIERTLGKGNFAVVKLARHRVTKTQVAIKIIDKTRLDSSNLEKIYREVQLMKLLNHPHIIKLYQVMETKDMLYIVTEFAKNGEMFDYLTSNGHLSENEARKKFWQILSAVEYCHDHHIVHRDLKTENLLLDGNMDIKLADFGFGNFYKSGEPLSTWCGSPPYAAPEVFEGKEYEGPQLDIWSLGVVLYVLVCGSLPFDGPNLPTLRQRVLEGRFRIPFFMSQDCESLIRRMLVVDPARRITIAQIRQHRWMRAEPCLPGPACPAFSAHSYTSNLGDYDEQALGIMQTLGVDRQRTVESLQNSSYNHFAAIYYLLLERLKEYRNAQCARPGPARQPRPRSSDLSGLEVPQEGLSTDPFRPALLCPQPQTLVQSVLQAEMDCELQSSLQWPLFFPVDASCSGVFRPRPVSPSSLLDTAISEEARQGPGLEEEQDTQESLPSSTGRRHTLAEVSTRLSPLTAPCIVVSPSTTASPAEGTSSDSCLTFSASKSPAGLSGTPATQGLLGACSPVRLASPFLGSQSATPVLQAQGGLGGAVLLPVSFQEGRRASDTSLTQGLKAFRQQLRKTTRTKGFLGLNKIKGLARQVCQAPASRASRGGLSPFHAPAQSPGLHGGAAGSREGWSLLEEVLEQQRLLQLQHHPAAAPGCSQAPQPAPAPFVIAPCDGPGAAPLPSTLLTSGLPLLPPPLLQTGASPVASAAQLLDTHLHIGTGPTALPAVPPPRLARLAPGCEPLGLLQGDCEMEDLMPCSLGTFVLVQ

[44] = biological target: Serine/threonine-protein kinase PRP4 homolog (Homo sapiens) (UniProt Q13523); details: Compound concentration 1000.0 nM
Chain of Serine/threonine-protein kinase PRP4 homolog (Homo sapiens) (Q13523 whole entry): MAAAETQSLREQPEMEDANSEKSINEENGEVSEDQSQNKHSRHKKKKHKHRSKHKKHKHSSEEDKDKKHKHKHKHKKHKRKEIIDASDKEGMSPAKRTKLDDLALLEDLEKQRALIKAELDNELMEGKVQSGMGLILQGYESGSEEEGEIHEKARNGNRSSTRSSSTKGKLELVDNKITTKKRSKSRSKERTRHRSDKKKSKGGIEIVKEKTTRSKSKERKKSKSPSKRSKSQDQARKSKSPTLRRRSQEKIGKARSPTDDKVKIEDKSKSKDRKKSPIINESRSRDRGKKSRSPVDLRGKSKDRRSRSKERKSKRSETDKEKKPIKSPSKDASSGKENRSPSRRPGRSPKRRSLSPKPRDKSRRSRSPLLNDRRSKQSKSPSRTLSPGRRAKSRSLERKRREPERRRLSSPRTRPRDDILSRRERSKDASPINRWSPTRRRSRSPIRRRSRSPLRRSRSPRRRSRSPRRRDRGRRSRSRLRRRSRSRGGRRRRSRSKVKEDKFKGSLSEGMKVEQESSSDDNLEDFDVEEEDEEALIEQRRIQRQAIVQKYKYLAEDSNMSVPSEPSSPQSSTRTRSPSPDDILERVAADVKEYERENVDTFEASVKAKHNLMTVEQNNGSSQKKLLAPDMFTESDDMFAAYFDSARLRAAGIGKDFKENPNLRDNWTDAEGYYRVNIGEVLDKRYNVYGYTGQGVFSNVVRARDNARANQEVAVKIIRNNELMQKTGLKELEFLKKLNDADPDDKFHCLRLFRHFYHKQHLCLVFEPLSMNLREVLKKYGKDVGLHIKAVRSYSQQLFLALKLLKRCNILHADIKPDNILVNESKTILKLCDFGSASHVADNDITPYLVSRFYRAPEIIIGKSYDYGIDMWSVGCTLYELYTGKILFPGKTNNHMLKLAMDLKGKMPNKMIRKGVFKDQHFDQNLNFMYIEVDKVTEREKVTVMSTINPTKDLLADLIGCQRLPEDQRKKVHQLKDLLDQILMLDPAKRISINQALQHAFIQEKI

[45] = biological target: Tyrosine-protein kinase receptor Tie-1 (Homo sapiens) (UniProt P35590); details: Compound concentration 1000.0 nM

CN([C@@H]1CCc2c(CC(=O)O)c3ccccc3n2C1)S(=O)(=O)c1ccc(F)cc1 [MK-7246]
inactive: residual activity [1] 100% | residual activity [2] 100% | residual activity [3] 100% | residual activity [4] 80% | residual activity [5] 100% | residual activity [6] 100% | residual activity [7] 100% | residual activity [8] 100% | inhibition [9] -1.51% | residual activity [10] 100% | residual activity [11] 100% | residual activity [12] 96% | residual activity [13] 100% | residual activity [14] 91% | residual activity [15] 100% | residual activity [16] 87% | residual activity [17] 100% | residual activity [18] 100% | residual activity [19] 100% | residual activity [20] 88% | residual activity [21] 83% | residual activity [22] 100% | residual activity [23] 100% | residual activity [24] 100% | residual activity [25] 100% | residual activity [26] 100% | residual activity [27] 100% | residual activity [28] 71% | residual activity [29] 100% | residual activity [30] 100% | residual activity [31] 80% | residual activity [32] 100% | residual activity [33] 96% | residual activity [34] 95% | inhibition [35] -6.38% | residual activity [36] 100% | residual activity [37] 100% | residual activity [38] 100% | residual activity [39] 100% | residual activity [40] 95% | residual activity [41] 100% | residual activity [42] 100% | residual activity [43] 71% | residual activity [44] 99% | residual activity [45] 89%

CN([C@@H]1CCc2c(CC(=O)O)c3cc(S(C)(=O)=O)ccc3n2C1)S(=O)(=O)c1ccc(F)cc1
inactive: residual activity [1] 100% | residual activity [2] 100% | residual activity [3] 100% | residual activity [4] 89% | residual activity [5] 100% | residual activity [6] 100% | residual activity [7] 100% | residual activity [8] 98% | inhibition [9] 0.933% | residual activity [10] 100% | residual activity [11] 99% | residual activity [12] 100% | residual activity [13] 100% | residual activity [14] 91% | residual activity [15] 100% | residual activity [16] 90% | residual activity [17] 100% | residual activity [18] 100% | residual activity [19] 76% | residual activity [20] 70% | residual activity [21] 88% | residual activity [22] 100% | residual activity [23] 100% | residual activity [24] 100% | residual activity [25] 100% | residual activity [26] 94% | residual activity [27] 100% | residual activity [28] 68% | residual activity [29] 94% | residual activity [30] 94% | residual activity [31] 100% | residual activity [32] 100% | residual activity [33] 100% | residual activity [34] 95% | inhibition [35] 0.539% | residual activity [36] 88% | residual activity [37] 100% | residual activity [38] 100% | residual activity [39] 100% | residual activity [40] 97% | residual activity [41] 100% | residual activity [42] 75% | residual activity [43] 87% | residual activity [44] 100% | residual activity [45] 95%
